#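 These data come from cells grown in 96-well plates and exposed to compound for 48 hours at five concentrations. The concentration for 50% growth inhibition is given as GI50. Definition used: TGI = concentration required for complete inhibition of growth.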
# Assays:
# Experiment in all cases: NCI tumour cell line growth inhibition, 48 h
# [1] = test system: MCF7 breast
# [2] = test system: 786-0 renal
# [3] = test system: OVCAR-8 ovarian
# [4] = test system: SW-620 colon
# [5] = test system: NCI-H226 lung
# [6] = test system: HCT-116 colon
# [7] = test system: MDA-MB-231 breast
# [8] = test system: OVCAR-4 ovarian
# [9] = test system: HT29 colon
# [10] = test system: OVCAR-3 ovarian
# [11] = test system: LOX IMVI melanoma
# [12] = test system: CAKI-1 renal
# [13] = test system: M14 melanoma
# [14] = test system: MDA-MB-435
# [15] = test system: UO-31 renal
# [16] = test system: ACHN renal
# [17] = test system: NCI-H23 lung
# [18] = test system: SK-MEL-28 melanoma
# [19] = test system: SNB-75 CNS
# [20] = test system: SK-MEL-5 melanoma
# [21] = test system: HS 578T breast
# [22] = test system: SN12C renal
# [23] = test system: U251 CNS
# [24] = test system: SNB-19 CNS
# [25] = test system: PC-3 prostate
# [26] = test system: A549 NSCLC
# [27] = test system: K-562 leukemia
# [28] = test system: UACC-257 melanoma
# [29] = test system: NCI-H460 lung
# [30] = test system: KM12 colon
# [31] = test system: DU-145 prostate
# [32] = test system: MOLT-4 leukemia
# [33] = test system: HL-60(TB) leukemia
# [34] = test system: SF-295 CNS
# [35] = test system: NCI/ADR-RES ovarian
# [36] = test system: A498 renal
# [37] = test system: COLO 205 colon
# [38] = test system: OVCAR-5 ovarian
# [39] = test system: T-47D breast
# [40] = test system: SR leukemia
# [41] = test system: SK-OV-3 ovarian
# [42] = test system: SF-539 CNS
# [43] = test system: RPMI-8226 leukemia
# [44] = test system: HCT-15 colon
# [45] = test system: SK-MEL-2 melanoma
# [46] = test system: IGROV1 ovarian
# [47] = test system: NCI-H522 lung
# [48] = test system: HOP-62 NSCLC
# [49] = test system: BT-549 breast
# [50] = test system: CCRF-CEM leukemia
# [51] = test system: SF-268 CNS
smiles,measurement,setting,value
Cc1nc2cc(Nc3nc(Nc4ccc(F)cc4)nc(N4CCOCC4)n3)ccc2n1Cc1ccccc1,GI50,[1],3.23 µM
same,TGI,[1],13.8 µM
same,GI50,[2],1.69 µM
same,TGI,[2],3.33 µM
same,GI50,[3],4.34 µM
same,TGI,[3],23.6 µM
same,GI50,[4],3.97 µM
same,TGI,[4],30.8 µM
same,GI50,[5],5.79 µM
same,TGI,[5],24.2 µM
same,GI50,[6],1.98 µM
same,TGI,[6],4 µM
same,GI50,[7],3.36 µM
same,TGI,[7],14.7 µM
same,GI50,[8],4.47 µM
same,TGI,[8],41.8 µM
same,GI50,[9],1.93 µM
same,TGI,[9],4.07 µM
same,GI50,[10],2.75 µM
same,TGI,[10],7.14 µM
same,GI50,[11],4.3 µM
same,TGI,[11],20.7 µM
same,GI50,[12],3.89 µM
same,TGI,[12],18.5 µM
same,GI50,[13],3.16 µM
same,TGI,[13],8.59 µM
same,GI50,[14],3.95 µM
same,TGI,[14],15.9 µM
same,GI50,[15],3.24 µM
same,TGI,[15],14.6 µM
same,GI50,[16],3.05 µM
same,TGI,[16],13.1 µM
same,GI50,[17],6.43 µM
same,TGI,[17],30.6 µM
same,GI50,[18],3.17 µM
same,TGI,[18],9.6 µM
same,GI50,[19],2.73 µM
same,TGI,[19],20.4 µM
same,GI50,[20],2.9 µM
same,TGI,[20],11.1 µM
same,GI50,[21],3.84 µM
same,TGI,[21],58.5 µM
same,GI50,[22],4.63 µM
same,TGI,[22],27.4 µM
same,GI50,[23],1.99 µM
same,TGI,[23],4.6 µM
same,GI50,[24],5.72 µM
same,TGI,[24],> 100 µM
same,GI50,[25],2.91 µM
same,TGI,[25],16.8 µM
same,GI50,[26],3.2 µM
same,TGI,[26],14.2 µM
same,GI50,[27],2.94 µM
same,TGI,[27],11.7 µM
same,GI50,[28],2.11 µM
same,TGI,[28],4.42 µM
same,GI50,[29],2.26 µM
same,TGI,[29],5.02 µM
same,GI50,[30],3.77 µM
same,TGI,[30],14.2 µM
same,GI50,[31],4.81 µM
same,TGI,[31],18.8 µM
same,GI50,[32],2.7 µM
same,TGI,[32],8.04 µM
same,GI50,[33],2.07 µM
same,TGI,[33],4.73 µM
same,GI50,[34],3.01 µM
same,TGI,[34],9.03 µM
same,GI50,[35],5.22 µM
same,TGI,[35],45.4 µM
same,GI50,[36],1.3 µM
same,TGI,[36],4.57 µM
same,GI50,[37],1.84 µM
same,TGI,[37],3.33 µM
same,GI50,[38],12.3 µM
same,TGI,[38],28.6 µM
same,GI50,[39],3.88 µM
same,TGI,[39],> 100 µM
same,GI50,[40],2.4 µM
same,TGI,[40],7.38 µM
same,GI50,[41],10.5 µM
same,TGI,[41],25.1 µM
same,GI50,[42],3.54 µM
same,TGI,[42],14.5 µM
same,GI50,[43],2.19 µM
same,TGI,[43],5.86 µM
same,GI50,[44],2.19 µM
same,TGI,[44],5.18 µM
same,GI50,[45],2.49 µM
same,TGI,[45],4.94 µM
same,GI50,[46],2.3 µM
same,TGI,[46],5.87 µM
same,GI50,[47],4.1 µM
same,TGI,[47],18.9 µM
same,GI50,[48],9.06 µM
same,TGI,[48],24 µM
same,GI50,[49],8.19 µM
same,TGI,[49],25.7 µM
same,GI50,[50],2.75 µM
same,TGI,[50],8.2 µM
same,GI50,[51],5.41 µM
same,TGI,[51],49.2 µM

# Reference: PubChem BioAssay (NCI)
